Results taken from PubChem BioAssay (NCI).
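The compound was tested at five concentrations on cells cultured in 96-well plates, with a 48-hour exposure period. The concentration for 50% growth inhibition is given as GI50. At the TGI there is no net growth.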

What was measured:
Test in all cases: inhibition of tumour cell growth, NCI panel, 48 h
786-0 renal = test system: 786-0 renal
A498 renal = test system: A498 renal
A549 NSCLC = test system: A549 NSCLC
ACHN renal = test system: ACHN renal
BT-549 breast = test system: BT-549 breast
CAKI-1 renal = test system: CAKI-1 renal
CCRF-CEM leukemia = test system: CCRF-CEM leukemia
COLO 205 colon = test system: COLO 205 colon
DU-145 prostate = test system: DU-145 prostate
EKVX NSCLC = test system: EKVX NSCLC
HCC-2998 colon = test system: HCC-2998 colon
HCT-116 colon = test system: HCT-116 colon
HCT-15 colon = test system: HCT-15 colon
HL-60(TB) leukemia = test system: HL-60(TB) leukemia
HOP-62 NSCLC = test system: HOP-62 NSCLC
HOP-92 NSCLC = test system: HOP-92 NSCLC
HS 578T breast = test system: HS 578T breast
HT29 colon = test system: HT29 colon
IGROV1 ovarian = test system: IGROV1 ovarian
K-562 leukemia = test system: K-562 leukemia
KM12 colon = test system: KM12 colon
LOX IMVI melanoma = test system: LOX IMVI melanoma
M14 melanoma = test system: M14 melanoma
MALME-3M melanoma = test system: MALME-3M melanoma
MCF7 breast = test system: MCF7 breast
MDA-MB-231 breast = test system: MDA-MB-231 breast
MDA-MB-435 = test system: MDA-MB-435
MOLT-4 leukemia = test system: MOLT-4 leukemia
NCI-H226 lung = test system: NCI-H226 lung
NCI-H23 lung = test system: NCI-H23 lung
NCI-H460 lung = test system: NCI-H460 lung
NCI-H522 lung = test system: NCI-H522 lung
NCI/ADR-RES ovarian = test system: NCI/ADR-RES ovarian
OVCAR-3 ovarian = test system: OVCAR-3 ovarian
OVCAR-4 ovarian = test system: OVCAR-4 ovarian
OVCAR-5 ovarian = test system: OVCAR-5 ovarian
OVCAR-8 ovarian = test system: OVCAR-8 ovarian
PC-3 prostate = test system: PC-3 prostate
RPMI-8226 leukemia = test system: RPMI-8226 leukemia
RXF 393 renal = test system: RXF 393 renal
SF-268 CNS = test system: SF-268 CNS
SF-295 CNS = test system: SF-295 CNS
SF-539 CNS = test system: SF-539 CNS
SK-MEL-2 melanoma = test system: SK-MEL-2 melanoma
SK-MEL-28 melanoma = test system: SK-MEL-28 melanoma
SK-MEL-5 melanoma = test system: SK-MEL-5 melanoma
SK-OV-3 ovarian = test system: SK-OV-3 ovarian
SN12C renal = test system: SN12C renal
SNB-19 CNS = test system: SNB-19 CNS
SNB-75 CNS = test system: SNB-75 CNS
SR leukemia = test system: SR leukemia
SW-620 colon = test system: SW-620 colon
T-47D breast = test system: T-47D breast
TK-10 renal = test system: TK-10 renal
U251 CNS = test system: U251 CNS
UACC-257 melanoma = test system: UACC-257 melanoma
UACC-62 melanoma = test system: UACC-62 melanoma
UO-31 renal = test system: UO-31 renal

In the case of `CCn1c(C(=O)N(C2CC2)C2CC2)cc2c3c(ncn3C)c(Nc3cc(C)n(C)n3)nc21`, the GI50 (786-0 renal) is reported as over 100 µM, the TGI (786-0 renal) is reported as over 100 µM and the TGI (A498 renal) is reported as over 100 µM. The GI50 (A549 NSCLC) was over 100 µM, the TGI (A549 NSCLC) was over 100 µM and the GI50 (ACHN renal) was over 100 µM. The TGI (ACHN renal) was over 100 µM, the GI50 (BT-549 breast) was over 100 µM and the TGI (BT-549 breast) was over 100 µM. It also gave a GI50 (CAKI-1 renal) of 16.8 µM, a TGI (CAKI-1 renal) of over 100 µM and a GI50 (CCRF-CEM leukemia) of over 100 µM. For the same molecule, the TGI (CCRF-CEM leukemia) was over 100 µM, the GI50 (COLO 205 colon) was over 100 µM and the TGI (COLO 205 colon) was over 100 µM. The GI50 (DU-145 prostate) was over 100 µM, the TGI (DU-145 prostate) was over 100 µM and the GI50 (EKVX NSCLC) was over 100 µM. The TGI (EKVX NSCLC) was over 100 µM, the GI50 (HCC-2998 colon) was over 100 µM and the TGI (HCC-2998 colon) was over 100 µM. It also gave a GI50 (HCT-116 colon) of over 100 µM, a TGI (HCT-116 colon) of over 100 µM and a GI50 (HCT-15 colon) of over 100 µM. The TGI (HCT-15 colon) was over 100 µM, the GI50 (HL-60(TB) leukemia) was over 100 µM and the TGI (HL-60(TB) leukemia) was over 100 µM. For the same molecule, the GI50 (HOP-62 NSCLC) was over 100 µM, the TGI (HOP-62 NSCLC) was over 100 µM and the GI50 (HOP-92 NSCLC) was over 100 µM. The TGI (HOP-92 NSCLC) was over 100 µM, the GI50 (HS 578T breast) was 3.63 µM and the TGI (HS 578T breast) was over 100 µM. For the same molecule, the GI50 (HT29 colon) was over 100 µM, the TGI (HT29 colon) was over 100 µM and the GI50 (IGROV1 ovarian) was 7.62 µM. For the same molecule, the TGI (IGROV1 ovarian) was over 100 µM, the GI50 (K-562 leukemia) was over 100 µM and the TGI (K-562 leukemia) was over 100 µM. The GI50 (KM12 colon) was 0.506 µM, the TGI (KM12 colon) was over 100 µM and the GI50 (LOX IMVI melanoma) was 59.2 µM. It also gave a TGI (LOX IMVI melanoma) of over 100 µM, a GI50 (M14 melanoma) of over 100 µM and a TGI (M14 melanoma) of over 100 µM. For the same molecule, the GI50 (MALME-3M melanoma) was over 100 µM, the TGI (MALME-3M melanoma) was over 100 µM and the GI50 (MCF7 breast) was over 100 µM. For the same molecule, the TGI (MCF7 breast) was over 100 µM, the GI50 (MDA-MB-231 breast) was 35.5 µM and the TGI (MDA-MB-231 breast) was over 100 µM. The GI50 (MDA-MB-435) was over 100 µM, the TGI (MDA-MB-435) was over 100 µM and the GI50 (MOLT-4 leukemia) was over 100 µM. The TGI (MOLT-4 leukemia) was over 100 µM, the GI50 (NCI-H226 lung) was over 100 µM and the TGI (NCI-H226 lung) was over 100 µM. The GI50 (NCI-H23 lung) was over 100 µM, the TGI (NCI-H23 lung) was over 100 µM and the GI50 (NCI-H460 lung) was over 100 µM. For the same molecule, the TGI (NCI-H460 lung) was over 100 µM, the GI50 (NCI-H522 lung) was over 100 µM and the TGI (NCI-H522 lung) was over 100 µM. The GI50 (NCI/ADR-RES ovarian) was over 100 µM, the TGI (NCI/ADR-RES ovarian) was over 100 µM and the GI50 (OVCAR-3 ovarian) was over 100 µM. It also gave a TGI (OVCAR-3 ovarian) of over 100 µM, a GI50 (OVCAR-4 ovarian) of over 100 µM and a TGI (OVCAR-4 ovarian) of over 100 µM. For the same molecule, the GI50 (OVCAR-5 ovarian) was over 100 µM, the TGI (OVCAR-5 ovarian) was over 100 µM and the GI50 (OVCAR-8 ovarian) was over 100 µM. It also gave a TGI (OVCAR-8 ovarian) of over 100 µM, a GI50 (PC-3 prostate) of over 100 µM and a TGI (PC-3 prostate) of over 100 µM. The GI50 (RPMI-8226 leukemia) was over 100 µM, the TGI (RPMI-8226 leukemia) was over 100 µM and the GI50 (RXF 393 renal) was 2.99 µM. For the same molecule, the TGI (RXF 393 renal) was 23.9 µM, the GI50 (SF-268 CNS) was over 100 µM and the TGI (SF-268 CNS) was over 100 µM. It also gave a GI50 (SF-295 CNS) of over 100 µM, a TGI (SF-295 CNS) of over 100 µM and a GI50 (SF-539 CNS) of over 100 µM. For the same molecule, the TGI (SF-539 CNS) was over 100 µM, the GI50 (SK-MEL-2 melanoma) was over 100 µM and the TGI (SK-MEL-2 melanoma) was over 100 µM. For the same molecule, the GI50 (SK-MEL-28 melanoma) was over 100 µM, the TGI (SK-MEL-28 melanoma) was over 100 µM and the GI50 (SK-MEL-5 melanoma) was over 100 µM. The TGI (SK-MEL-5 melanoma) was over 100 µM, the GI50 (SK-OV-3 ovarian) was over 100 µM and the TGI (SK-OV-3 ovarian) was over 100 µM. The GI50 (SN12C renal) was 98.3 µM, the TGI (SN12C renal) was over 100 µM and the GI50 (SNB-19 CNS) was over 100 µM. For the same molecule, the TGI (SNB-19 CNS) was over 100 µM, the GI50 (SNB-75 CNS) was 1.26 µM and the TGI (SNB-75 CNS) was 32.5 µM. The GI50 (SR leukemia) was 16.8 µM, the TGI (SR leukemia) was over 100 µM and the GI50 (SW-620 colon) was over 100 µM. The TGI (SW-620 colon) was over 100 µM, the GI50 (T-47D breast) was over 100 µM and the TGI (T-47D breast) was over 100 µM. The GI50 (TK-10 renal) was over 100 µM, the TGI (TK-10 renal) was over 100 µM and the GI50 (U251 CNS) was over 100 µM. It also gave a TGI (U251 CNS) of over 100 µM, a GI50 (UACC-257 melanoma) of over 100 µM and a TGI (UACC-257 melanoma) of over 100 µM. For the same molecule, the GI50 (UACC-62 melanoma) was over 100 µM, the TGI (UACC-62 melanoma) was over 100 µM and the GI50 (UO-31 renal) was over 38.5 µM. It also gave a TGI (UO-31 renal) of over 100 µM.
